# From patent US6841172B1, “Method for iron delivery to a patient by transfer from dialysate” (HemoCleanse, Inc., priority 1996, dated 2005)
# Legend:
# red blood cells = assay: Monitoring of hemolysis in experimental dialysis (plasma absorbance at 420 and 585 nm); design: species or system bovine; conditions: compared with similar experiments without iron in the dialysate
# Excerpt: To determine whether the method of Example 1 would cause hemolysis (lysis of red blood cells with the liberation of hemoglobin), absorbance data at 420 and 585 nm was collected for the plasma at various stages of the experiment described in Example 1.
# [1] = Transfer of ferrous gluconate from dialysate into blood by hemodialysis through a PAN membrane dialyzer; assay type: in vitro ADME, bovine
# Description: A two liter volume of bovine blood (hematocrit adjusted from 49 to 40 with saline) which had been stored with heparin anticoagulation for 24 hours was dialyzed using a PAN membrane dialyzer. The volume was maintained at 2 liters throughout the experiment by adding saline.
# A sample of the blood was taken prior to dialysis of the blood and tested for iron content. The iron content of the pre-dialysis blood was 110 μg/dl and the transferrin iron binding capacity was 234 μg/dl. Dialysis was then started using the following equipment and conditions:
# The circuit was primed with dialysate, prepared as described above, pumps were adjusted for proper flow, and then the blood side was drained of dialysate by pulling the Blood In tube out of the dialysis bath and allowing air to fill this side.
# Assays were performed to determine plasma iron concentrations at 0, 5, 10, 20 and 30 minutes. […] This transfer indicates an avidity of plasma for the iron complex, even higher than the iron binding capacity of transferrin.
substance,measurement,setting,value
ferrous gluconate,level of hemolysis during dialysis,red blood cells,not higher than that of similar experiments conducted without iron in the dialysate
same,plasma iron level,"[1]; after 30 minutes of dialysis, dialysate iron 125 μg/dl, pre-dialysis blood iron 110 μg/dl, transferrin iron binding capacity 234 μg/dl",~500 µg/dL
same,percent saturation of transferrin,"[1]; after only a few minutes of hemodialysis, dialysate iron 125 μg/dl",100%
same,iron transferred per dialysis treatment,[1]; dialysate ferrous gluconate increased to 4 mg/dl,15 mg
same,iron transferred to the plasma,"[1]; if the initial rate of iron transfer is continued for 180 minutes, dialysate 1 mg/dl ferrous gluconate",approximately 4 mg
